Conditions: 323.14 K, Liquid, Vibrating tube method

FC(C(F)(F)F)C(F)(F)F [1,1,1,2,3,3,3-heptafluoropropane]
Conditions | mass density [kg/m3]
4100 kPa | 1311
4120 kPa | 1311.1
4140 kPa | 1311.5
4170 kPa | 1311.8
4190 kPa | 1312
4220 kPa | 1312.3
4240 kPa | 1312.4
4270 kPa | 1312.8
4290 kPa | 1313.1
4310 kPa | 1313.2
4330 kPa | 1313.5
4360 kPa | 1313.8
4380 kPa | 1313.9
4400 kPa | 1314.2
4420 kPa | 1314.6
4440 kPa | 1314.6
4470 kPa | 1314.9
4500 kPa | 1315.2
4510 kPa | 1315.3
4540 kPa | 1315.5
4560 kPa | 1315.8
4590 kPa | 1316
4610 kPa | 1316.2
4640 kPa | 1316.6
4660 kPa | 1316.8
4690 kPa | 1317.1
4710 kPa | 1317.3
4740 kPa | 1317.6
4960 kPa | 1319.7
4980 kPa | 1320.1
5020 kPa | 1320.3
5040 kPa | 1320.6
5070 kPa | 1320.9
5100 kPa | 1321.1
5130 kPa | 1321.4
5150 kPa | 1321.7
5180 kPa | 1321.7
5200 kPa | 1322
5220 kPa | 1322.3
5250 kPa | 1322.6
5280 kPa | 1322.9
5310 kPa | 1323.2
5330 kPa | 1323.3
5360 kPa | 1323.7
5390 kPa | 1323.9
5420 kPa | 1324.1
5440 kPa | 1324.3
5470 kPa | 1324.7
5490 kPa | 1324.9
5520 kPa | 1325.2
5540 kPa | 1325.4
5570 kPa | 1325.7
5600 kPa | 1325.9
5630 kPa | 1326.2
5650 kPa | 1326.4
5670 kPa | 1326.6
5960 kPa | 1329.4
5990 kPa | 1329.5
6010 kPa | 1329.7
6030 kPa | 1330
6050 kPa | 1330
6080 kPa | 1330.3
6100 kPa | 1330.6
6120 kPa | 1330.7
6140 kPa | 1330.8
6160 kPa | 1331.1
6180 kPa | 1331.2
6200 kPa | 1331.4
6230 kPa | 1331.8
6240 kPa | 1331.8
6270 kPa | 1332
6290 kPa | 1332.4
6310 kPa | 1332.4
6330 kPa | 1332.6
6350 kPa | 1333
6380 kPa | 1333.1
6390 kPa | 1333.3
6410 kPa | 1333.5
6463 kPa | 1333.8
6556 kPa | 1334.6
6581 kPa | 1334.8
6778 kPa | 1336.5
6803 kPa | 1336.7
6825 kPa | 1337
6840 kPa | 1337.1
6865 kPa | 1337.3
6881 kPa | 1337.4
6903 kPa | 1337.7
6923 kPa | 1337.8
6947 kPa | 1338.1
6974 kPa | 1338.2
7006 kPa | 1338.7
7056 kPa | 1338.9
7083 kPa | 1339.2
7103 kPa | 1339.4
7124 kPa | 1339.5
7147 kPa | 1339.7
7168 kPa | 1339.9
7194 kPa | 1340.2
7215 kPa | 1340.4
7245 kPa | 1340.6
7268 kPa | 1340.7
7292 kPa | 1341
7328 kPa | 1341.3
7350 kPa | 1341.5
7375 kPa | 1341.7
7395 kPa | 1341.7
7423 kPa | 1342.1
7444 kPa | 1342.2
7468 kPa | 1342.4
7492 kPa | 1342.6
7516 kPa | 1342.8
7540 kPa | 1343.1
7566 kPa | 1343.2
7592 kPa | 1343.5
7619 kPa | 1343.7
7640 kPa | 1344
7661 kPa | 1344.2
7683 kPa | 1344.2
7702 kPa | 1344.3
7719 kPa | 1344.5
7741 kPa | 1344.7
7761 kPa | 1344.8
7781 kPa | 1345
7801 kPa | 1345.1
7818 kPa | 1345.3
7837 kPa | 1345.4
7859 kPa | 1345.7
7878 kPa | 1345.9
7903 kPa | 1346
7924 kPa | 1346
7964 kPa | 1346.4
8025 kPa | 1347
8049 kPa | 1347.2
8068 kPa | 1347.2
8087 kPa | 1347.4
8101 kPa | 1347.6
8118 kPa | 1347.7
8142 kPa | 1347.8
8162 kPa | 1348.1
8181 kPa | 1348.2
8197 kPa | 1348.3
8219 kPa | 1348.6
8234 kPa | 1348.6
8250 kPa | 1348.9
8266 kPa | 1348.7
8284 kPa | 1349
8300 kPa | 1349.3
8316 kPa | 1349.2
8385 kPa | 1349.8
8410 kPa | 1350.2
8432 kPa | 1350.1
8450 kPa | 1350.4
8914 kPa | 1353.9
8936 kPa | 1354.2
8952 kPa | 1354.1
8977 kPa | 1354.5
8991 kPa | 1354.6
9010 kPa | 1354.7
9030 kPa | 1354.9
9051 kPa | 1354.9
9072 kPa | 1355.2
9092 kPa | 1355.3
9115 kPa | 1355.4
9133 kPa | 1355.7
9154 kPa | 1355.8
9171 kPa | 1355.9
9191 kPa | 1356.1
9214 kPa | 1356.3
9238 kPa | 1356.3
9264 kPa | 1356.7
9290 kPa | 1356.9
9305 kPa | 1357
9326 kPa | 1357.1
9347 kPa | 1357.2
9371 kPa | 1357.4
9389 kPa | 1357.5
9411 kPa | 1357.8
9432 kPa | 1357.9
9459 kPa | 1358.1
9483 kPa | 1358.2
9503 kPa | 1358.4
9521 kPa | 1358.4
9543 kPa | 1358.6
9559 kPa | 1358.9
9574 kPa | 1358.9
9596 kPa | 1359
9618 kPa | 1359.2
9639 kPa | 1359.5
9657 kPa | 1359.5
9681 kPa | 1359.8
9700 kPa | 1359.9
9913 kPa | 1361.5
9929 kPa | 1361.6
9948 kPa | 1361.8
9976 kPa | 1361.9
9997 kPa | 1362.1
10019 kPa | 1362.3
10043 kPa | 1362.2
10066 kPa | 1362.5
10083 kPa | 1362.6
10105 kPa | 1362.8
10130 kPa | 1363
10153 kPa | 1363.3
10170 kPa | 1363.3

Reference: the NIST ThermoML archive (doi:10.1021/je700260f)
